Patent US20140073634A1 (Institute For Applied Cancer Science/The University of …, priority 2012, published 2014)
Where a name gives a salt, the structure may show the parent alone.

test system: 293T-HRE-GFP-luc cells; experiment: Cell-based reporter assay for IC50 determinations (HRE-luciferase, hypoxia); conditions: 6 h, 6 hrs hypoxia (1% O2), luminescence
Outline: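 IC50s come from four-parameter logistic fits of luminescence. Compounds in 1:3 DMSO series were added to 293T-HRE-GFP-luc cells, 30 min normoxia preceding 6 hrs at 1% O2, 37° C; HRE-luciferase signal was then measured with Steadylite Plus reagent.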

Structure (SMILES) | IC50 [µM]
CNC(=O)c1cccc(Cn2nc(-c3nc(-c4ccc(OC(F)(F)F)cc4)no3)ccc2=O)c1 [Example 131, N-methyl-3-[(6-oxo-3-{3-[4-(trifluoromethoxy)phenyl]-1 2 4-oxadiazol-5-yl}-1 6-dihydropyridazin-1-yl)methyl]benzamide] | < 0.1
Cc1ccc(-c2nc(-c3ccc(OC(F)(F)F)cc3)no2)c(=O)n1Cc1cccc(S(N)(=O)=O)c1 [Example 268, 3-[(6-methyl-2-oxo-3-{3-[4-(trifluoromethoxy)phenyl]-1,2,4-oxadiazol-5-yl}-1,2-dihydropyridin-1-yl)methyl]benzene-1-sulfonamide] | 0.1 to 1
COCCOc1cccc(Cn2cc(-c3noc(-c4ccc(S(=O)(=O)C(F)F)cc4)n3)ccc2=O)c1 [Example 221, 5-[5-(4-difluoromethanesulfonylphenyl)-1,2,4-oxadiazol-3-yl]-1-{[3-(2-methoxyethoxy)phenyl]methyl}-1,2-dihydropyridin-2-one] | < 0.1
CS(=O)(=O)c1cccc(Cn2nc(-c3nc(-c4ccc(OC(F)(F)F)cc4)no3)ccc2=O)c1 [Example 118, 2-(3-(methylsulfonyl)benzyl)-6-(3-(4-(trifluoromethoxy)phenyl)-1,2,4-oxadiazol-5-yl)pyridazin-3(2H)-one] | < 0.1
COCCOc1cccc(Cn2cc(-c3noc(-c4ccc(NC(C)=O)cc4)n3)ccc2=O)c1 [Example 226, N-{4-[3-(1-{[3-(2-methoxyethoxy)phenyl]methyl}-6-oxo-1,6-dihydropyridin-3-yl)-1,2,4-oxadiazol-5-yl]phenyl}acetamide] | 0.1 to 1
COC(=O)Cc1cccc(Cn2cc(-c3nc(-c4ccc(OC(F)(F)F)cc4)no3)ccc2=O)c1 [Example 155, methyl 2-{3-[(2-oxo-5-{3-[4-(trifluoromethoxy)phenyl]-1,2,4-oxadiazol-5-yl}-1,2-dihydropyridin-1-yl)methyl]phenyl}acetate] | < 0.1
CN1CCN(c2cccc(Cn3cc(-c4nnc(-c5ccc(OC(F)(F)F)cc5)o4)ccc3=O)c2)CC1 [Example 100, 1-Methyl-4-(3-((2-oxo-5-(5-(4-(trifluoromethoxy)phenyl)-1,3,4-oxadiazol-2-yl)pyridin-1(2H)-yl)methyl)phenyl)piperazin-1-ium 2,2,2-trifluoroacetate] | < 0.1
O=c1ccc(-c2nc(-c3ccc(OC(F)(F)F)cc3)no2)cn1Cc1cccc(C(O)CO)c1 (stereo not shown) [Example 53, 1-(3-(1,2-Dihydroxyethyl)benzyl)-5-(3-(4-(trifluoromethoxy)phenyl)-1,2,4-oxadiazol-5-yl)pyridin-2(1H)-one] | < 0.1
COCCOc1cccc(Cn2cc(-c3noc(-c4cnc(NCC(C)(C)C)nc4)n3)ccc2=O)c1 [Example 247, 5-(5-{2-[(2,2-dimethylpropyl)amino]pyrimidin-5-yl}-1,2,4-oxadiazol-3-yl)-1-{[3-(2-methoxyethoxy)phenyl]methyl}-1,2-dihydropyridin-2-one] | < 0.1
CS(=O)(=O)CCCOc1cccc(Cn2cc(-c3noc(-c4ccc(S(=O)(=O)C(F)(F)F)cc4)n3)ccc2=O)c1 [Example 211, 1-{[3-(3-methanesulfonylpropoxy)phenyl]methyl}-5-[5-(4-trifluoromethanesulfonylphenyl)-1,2,4-oxadiazol-3-yl]-1,2-dihydropyridin-2-one] | < 0.1
CC(C)c1ccc(-c2cc(-c3ccc(=O)n(Cc4cccc(N5CCC(S(C)(=O)=O)CC5)c4)c3)no2)cc1 [Example 255, 5-(5-(4-isopropylphenyl)isoxazol-3-yl)-1-(3-(4-(methylsulfonyl)piperidin-1-yl)benzyl)pyridin-2(1H)-one] | < 0.1
COCCOc1cccc(Cn2cc(-c3nnc(-c4ccc(OC(F)(F)F)cc4)o3)ccc2=O)c1 [Example 102] | < 0.1
COCCOc1cccc(Cn2cc(-c3noc(-c4cnc(OCC(C)C)nc4)n3)ccc2=O)c1 [Example 87, 5-(5-(2-Isobutoxypyrimidin-5-yl)-1,2,4-oxadiazol-3-yl)-1-(3-(2-methoxyethoxy)benzyl)pyridin-2(1H)-one] | < 0.1
CS(=O)(=O)CCCOc1cccc(Cn2cc(-c3noc(-c4ccc(OC(F)(F)F)cc4)n3)ccc2=O)c1 [Example 69, 1-(3-(3-(Methylsulfonyl)propoxy)benzyl)-5-(5-(4-(trifluoromethoxy)phenyl)-1,2,4-oxadiazol-3-yl)pyridin-2(1H)-one] | < 0.1
CCN(CC)S(=O)(=O)c1cccc(Cn2cc(-c3nc(-c4ccc(OC(F)(F)F)cc4)no3)ccc2=O)c1 [Example 164, N,N-diethyl-3-[(2-oxo-5-{3-[4-(trifluoromethoxy)phenyl]-1,2,4-oxadiazol-5-yl}-1,2-dihydropyridin-1-yl)methyl]benzene-1-sulfonamide] | < 0.1
COCCOc1cccc(Cn2cc(-c3noc(-c4ccc(C)c(C)c4)n3)ccc2=O)c1 [Example 222, 5-[5-(3,4-dimethylphenyl)-1,2,4-oxadiazol-3-yl]-1-{[3-(2-methoxyethoxy)phenyl]methyl}-1,2-dihydropyridin-2-one] | 0.1 to 1
O=c1ccc(-c2nc(-c3ccc(OC(F)(F)F)cc3)no2)cn1Cc1cccc(O)c1 [Example 32, 1-[(3-Hydroxyphenyl)methyl]-5-{3-[4-(trifluoromethoxy)phenyl]-1,2,4-oxadiazol-5-yl}-1,2-dihydropyridin-2-one] | 0.1 to 1
CC(C)(C)OC(=O)NCCOc1cccc(Cn2cc(-c3nc(-c4ccc(OC(F)(F)F)cc4)no3)ccc2=O)c1 [Example 150, tert-butyl N-(2-{3-[(2-oxo-5-{3-[4-(trifluoromethoxy)phenyl]-1,2,4-oxadiazol-5-yl}-1,2-dihydropyridin-1-yl)methyl]phenoxy}ethyl)carbamate] | < 0.1
CC(C)(O)c1cccc(Cn2cc(-c3noc(-c4ccc(S(=O)(=O)C(F)(F)F)cc4)n3)ccc2=O)c1 [Example 213, 1-{[3-(2-hydroxypropan-2-yl)phenyl]methyl}-5-[5-(4-trifluoromethanesulfonylphenyl)-1,2,4-oxadiazol-3-yl]-1,2-dihydropyridin-2-one] | < 0.1
NCCOc1cccc(Cn2cc(-c3nc(-c4ccc(OC(F)(F)F)cc4)no3)ccc2=O)c1 [Example 34, 1-{[3-(2-Aminoethoxy)phenyl]methyl}-5-{3-[4-(trifluoromethoxy)phenyl]-1,2,4-oxadiazol-5-yl}-1,2-dihydropyridin-2-one] | < 0.1
CN(C)C(=O)Cc1cccc(Cn2cc(-c3nc(-c4ccc(OC(F)(F)F)cc4)no3)ccc2=O)c1 [Example 157, N,N-dimethyl-2-{3-[(2-oxo-5-{3-[4-(trifluoromethoxy)phenyl]-1,2,4-oxadiazol-5-yl}-1,2-dihydropyridin-1-yl)methyl]phenyl}acetamide] | < 0.1
COCCOc1cccc(Cn2cc(-c3noc(-c4cnc(OCC(F)(F)F)nc4)n3)ccc2=O)c1 [Example 240, 1-{[3-(2-methoxyethoxy)phenyl]methyl}-5-{5-[2-(2,2,2-trifluoroethoxy)pyrimidin-5-yl]-1,2,4-oxadiazol-3-yl}-1,2-dihydropyridin-2-one] | < 0.1
COCCOc1cccc(Cn2cc(-c3noc(-c4ccc(C(C)(C)CO)cc4)n3)ccc2=O)c1 [Example 70, 5-(5-(4-(1-Hydroxy-2-methylpropan-2-yl)phenyl)-1,2,4-oxadiazol-3-yl)-1-(3-(2-methoxyethoxy)benzyl)pyridin-2(1H)-one] | < 0.1
Cc1ccc(-c2nc(-c3ccc(OC(F)(F)F)cc3)no2)c(=O)n1Cc1ccnc(N2CCOCC2)c1 [Example 18, 4-((6-Methyl-2-oxo-3-(3-(4-(trifluoromethoxy)phenyl)-1,2,4-oxadiazol-5-yl)pyridin-1(2H)-yl)methyl)-2-morpholinopyridin-1-ium trifluoroacetate] | < 0.1
Cc1ccc(-c2nc(-c3ccc(OC(F)(F)F)cc3)no2)c(=O)n1Cc1ccnc(N2CCCCC2)c1 [Example 15, 4-((6-Methyl-2-oxo-3-(3-(4-(trifluoromethoxy)phenyl)-1,2,4-oxadiazol-5-yl)pyridin-1(2H)-yl)methyl)-2-(piperidin-1-yl)pyridin-1-ium trifluoroacetate] | < 0.1
O=c1ccc(-c2nc(-c3ccc(OC(F)(F)F)cc3)no2)cn1Cc1cccc(N2CCCCC2)c1 [Example 160, 1-{[3-(piperidin-1-yl)phenyl]methyl}-5-{3-[4-(trifluoromethoxy)phenyl]-1,2,4-oxadiazol-5-yl}-1,2-dihydropyridin-2-one] | < 0.1
C=CCOc1cccc(Cn2cc(-c3nc(-c4ccc(OC(F)(F)F)cc4)no3)ccc2=O)c1 [Example 54, 1-(3-(Allyloxy)benzyl)-5-(3-(4-(trifluoromethoxy)phenyl)-1,2,4-oxadiazol-5-yl)pyridin-2(1H)-one] | < 0.1
COCCOc1cccc(Cn2cc(-c3noc(-c4ccc(OC(F)F)cc4)n3)ccc2=O)c1 [Example 197, 5-{5-[4-(difluoromethoxy)phenyl]-1,2,4-oxadiazol-3-yl}-1-{[3-(2-methoxyethoxy)phenyl]methyl}-1,2-dihydropyridin-2-one] | < 0.1
COCCOc1cccc(Cn2cc(-c3noc(-c4ccc(S(=O)(=O)CC#N)cc4)n3)ccc2=O)c1 [Example 85, 2-(4-(3-(1-(3-(2-Methoxyethoxy)benzyl)-6-oxo-1,6-dihydropyridin-3-yl)-1,2,4-oxadiazol-5-yl)phenylsulfonyl)acetonitrile] | 0.1 to 1

same assay, conditions: 6 hrs hypoxia (1% O2), luminescence

Structure (SMILES) | IC50 [µM]
CN1CCN(c2cccc(Cn3cc(-c4nc(-c5ccc(OC(F)(F)F)cc5)co4)ccc3=O)c2)CC1 [Example 93, 1-(3-(4-Methylpiperazin-1-yl)benzyl)-5-(4-(4-(trifluoromethoxy)phenyl)oxazol-2-yl)pyridin-2(1H)-one] | < 0.1
O=c1ccc(-c2nc(-c3ccc(OC(F)(F)F)cc3)no2)cn1Cc1cccc(C(O)CO)c1 (single isomer, unassigned) [Example 53b, (1S)- or (1R)-1-(3-(1,2-dihydroxyethyl)benzyl)-5-(3-(4-(trifluoromethoxy)phenyl)-1,2,4-oxadiazol-5-yl)pyridin-2(1H)-one] | < 0.1
